Reference: patent publication US4178449A, “Pyrazolo[1,5-a]pyrimidines and imidazo-[1,5-a]pyrimidines” (American Cyanamid Company, priority 1978, dated 1979)

Tests used:
[1] = tested on: 3H-diazepam binding to the brain receptors (rat frontal cortex P2-synaptosomal fraction); assay: inhibition of 3H-diazepam binding to brain receptors; parameters: key: Active: A compound which exhibits the ability to inhibit binding by ≥20% is considered to be active; conditions: 3H-diazepam (1.5 mM.), 20 minutes in ice
Excerpt: Another test used to measure anxiolytic activity comprises measurement of the ability of test compounds to inhibit the binding of ^3 H-diazepam to the brain receptors of warm-blooded animals. The test is described by R. F. Squires in Nature, 266, No. 21 page 732 (April 1977) and H. Mohler and T. Okada, Science, 198, 849 (1977). A modification of this test was employed wherein the animals used were male albino rats of the Wistar strain, weighing 150-200 g. each from Royalhart Farms. Diazepam (methyl-^3 H) was obtained from New England Nuclear. The test compounds were solubilized in either dimethylformamide, acetic acid, ethanol or hydrochloric acid. Frontal cortex of rats was homogenized gently in 20 volumes of ice-cold 0.32 M. sucrose, centrifuged twice at 1000 g. for 10 minutes and then recentrifuged at 30,000 g. for 20 minutes to produce a crude P2 -synaptosomal fraction. The P2 -fraction was resuspended, twice the original volume, in hypotonic 50 mM. Tris.HCl (pH 7.4). The binding assay consisted of 300 μl. of the P2 -fraction suspension (0.350 mg.), 100 μl. of test drug and 100 μl. of ^3 H-diazepam ([…].),. which was added to 1.5 ml. of 50 mM. Tris.HCl (pH 7.4). Non-specific binding controls and total binding controls received 100 μl. of diazepam (3 μm.) and 100 μl. of deionized water, respectively, in place of the test compound. Incubation for 20 minutes proceeded in ice and was terminated by filtration, under vacuum, through Whatman GF/C glass fiber filters. The filters were washed twice with 5 ml. of ice-cold 50 mM. Tris.HCl (pH 7.4) and placed in scintillation vials. After drying at 50°-60° C. for 30 minutes, 10 ml. of Beckman Ready-Solve HP was added and the radioactivity determined in a Beckman Scintillation Counter. The percentage of inhibition of diazepam binding is calculated for each compound. […] Representative compounds of the present invention which were active when tested by the diazepam binding assay are set forth in Table III below.

[2] = tested on: pentylenetetrazole clonic seizures in rats; assay: protection from convulsions resulting from the administration of pentylenetetrazole; format: in vivo, rat; parameters: key: Active: The test compounds are considered active if they protect 50% or more of the rats from clonic seizures; conditions: oral or intraperitoneal, single or graded doses, pentylenetetrazole 21 to 23 mg./kg. i.v. at 30 or 60 minutes
Protocol: The anti-anxiety properties of the novel compounds of the present invention have been established in a test which indicates anxiolytic activity by the measure of protection from convulsions resulting from the administration of pentylenetetrazole. Single or graded dose levels of the test compounds were administered orally or intraperitoneally in a 2% starch vehicle, to groups of at least 4 rats. At 30 or 60 minutes, the rats were treated intravenously with pentylenetetrazole at a dose of 21 to 23 mg./kg. of body weight. This dose is estimated to cause clonic seizures in 99% of unprotected rats. The test compounds are considered active if they protect 50% or more of the rats from clonic seizures. It has been reported [R. T. Hill and D. H. Tedeschi, "Animal Testing and Screening Procedures in Evaluating Psychotropic Drugs" in "An Introduction to Psychopharmacology", Eds. R. R. Rech and K. E. Moore, Raven Press, New York, pp. 237-288 (1971)] that there is a high degree of correlation between antagonism of pentylenetetrazole seizures in rats and anti-anxietyeffects in higher warm-blooded animals.

[3] = tested on: conflict situation (shocks taken) in Wistar strain rats; assay: non-conditioned passive avoidance (conflict) procedure; format: in vivo, rat; parameters: key: Active: The test compounds are considered active if the shocks received by the test group are significantly different from the control group by the Mann-Whitney U test; conditions: oral or intraperitoneal, single or graded doses, tested at 30 or 60 minutes, 5 minute interval
Protocol: Another test which has been used to assess anti-anxiety effect is a non-conditioned passive avoidance procedure described by J. R. Vogel, B. Beer and D. E. Clody, "A Simple and Reliable Conflict Procedure for Testing Anti-Anxiety Agents", Psychopharmacologia, 21, 1-7 (1971). A conflict situation is induced in rats by a modification of this method. Groups of 6 naive, Wistar strain rats, weighing 200-240 g. each were deprived of water for 48 hours and food for 24 hours. The test compounds were administered in single or graded, oral or intraperitoneal doses suspended in a 2% starch vehicle containing 0.5% v/v polyethylene glycol and one drop of Polysorbate 80. Control animals received the vehicle alone. At 30 or 60 minutes each rat was placed in individual black plexiglass chambers. A 10% dextrose solution was available ad libitum from a tap located in the rear of the chamber. A 0.3 milliampere constant current 60 Hz pulsed DC shocking current was established between the stainless steel grid floor and the tap. After 20 seconds of non-shocked drinking, an alternating 5 second "shock-on" and 5 second "shock-off" cycle began and continued for a total of 5 minutes. The number of shocks taken by each rat during the 5 minute interval was recorded and compared to a control group. […]

Structure (SMILES)	Result (inhibition of 3H-diazepam binding) [1]	Result (protection from pentylenetetrazole clonic seizures) [2]	Result (number of shocks taken vs control, conflict procedure) [3]
Cc1nn2c(-c3cccc(C(F)(F)F)c3)ccnc2c1C#N [Example 11, 2-Methyl-7-(α,α,α-trifluoro-m-tolyl)pyrazolo[1,5-a]pyrimidine-3-carbonitrile]	Active	Active	Active
c1ccc(-c2ccn3nccc3n2)cc1 [Example 67, 5-Phenylpyrazolo[1,5-a]pyrimidine]		Active	
COc1cccc(-c2ccnc3c(C#N)cnn23)c1 [Example 27, 7-(m-Methoxyphenyl)pyrazolo[1,5-a]pyrimidine-3-carbonitrile]	Active	Active	
Cc1cnc2ccnn2c1-c1cccc(C(F)(F)F)c1 [Example 24, 6-Methyl-7-(α,α,α-trifluoro-m-tolyl)pyrazolo[1,5-a]pyrimidine]	Active		Active
CCOC(=O)c1cnn2c(-c3ccc(OC)c(OC)c3)ccnc12 [Example 59, Ethyl 7-(3,4-dimethoxyphenyl)pyrazolo[1,5-a]pyrimidine-3-carboxylate]		Active	
N#Cc1c(C(N)=O)nn2c(-c3cccc(C(F)(F)F)c3)ccnc12 [Example 19, 3-Cyano-7-(α,α,α-trifluoro-m-tolyl)pyrazolo[1,5-a]pyrimidine-2-carboxamide]	Active	Active	
COCc1cnn2c(-c3cccc(C(F)(F)F)c3)ccnc12 [Example 80, 3-(Methoxymethyl)-7-(α,α,α-trifluoro-m-tolyl)pyrazolo[1,5-a]-pyrimidine]		Active	
CCOC(=O)c1cnn2c(-c3cccc(C(F)(F)F)c3)ccnc12 [Example 16, 7-(α,α,α-Trifluoro-m-tolyl)pyrazolo[1,5-a]pyrimidine-3-carboxylic acid ethyl ester]	Active	Active	Active
FC(F)(F)c1cccc(-c2ccnc3c(Cl)cnn23)c1 [Example 14, 3-Chloro-7-(α,α,α-trifluoro-m-tolyl)pyrazolo[1,5-a]pyrimidine]	Active	Active	
Cc1cnc2c(Cl)cnn2c1-c1cccc(C(F)(F)F)c1 [Example 25, 3-Chloro-6-methyl-7-(α,α,α-trifluoro-m-tolyl)pyrazolo[1,5-a]pyrimidine]	Active		Active
CCOC(=O)c1cnn2c(-c3ccc(CC)cc3)ccnc12 [Example 61, Ethyl 7-(p-ethylphenyl)pyrazolo[1,5-a]pyrimidine-3-carboxylate]		Active	
Cc1cnc2c(C#N)cnn2c1-c1cccc(C(F)(F)F)c1 [Example 23, 6-Methyl-7-(α,α,α-trifluoro-m-tolyl)pyrazolo-[1,5-a]pyrimidine-3-carbonitrile]	Active	Active	
FC(F)(F)c1cccc(-c2ccn3nccc3n2)c1 [Example 66, 5-(α,α,α-Trifluoro-m-tolyl)pyrazolo[1,5-a]pyrimidine]		Active	
c1ccc(-c2ccnc3ccnn23)cc1 [Example 1, 7-Phenylpyrazolo[1,5-a]pyrimidine]	Active		Active
ON=Cc1cnn2c(-c3cccc(C(F)(F)F)c3)ccnc12 [Example 49, 7-(α,α,α-Trifluoro-m-tolyl)pyrazolo[1,5-a]pyrimidine-3-carboxaldehyde, oxime]		Active	
N#Cc1cnn2c(-c3cccc(F)c3)ccnc12 [Example 76, 7-(m-Fluorophenyl)pyrazolo[1,5-a]pyrimidine-3-carbonitrile]		Active	
CN(C)CCOC(=O)c1cnn2c(-c3cccc(C(F)(F)F)c3)ccnc12 [Example 79, 2-Dimethylaminoethyl 7-(α,α,α-trifluoro-m-tolyl)pyrazolo[1,5-a]-pyrimidine-3-carboxylate]		Active	
CCOC(=O)c1cnn2c(-c3cccc(C)c3)ccnc12 [Example 77, Ethyl 7-(m-tolyl)pyrazolo[1,5-a]pyrimidine-3-carboxylate]		Active	
O=Cc1cnn2c(-c3cccc(C(F)(F)F)c3)ccnc12 [Example 48, 7-(α,α,α-Trifluoro-m-tolyl)pyrazolo[1,5-a]pyrimidine-3-carboxaldehyde]		Active	
CCOC(=O)c1cnn2c(-c3ccc(C)c(C)c3)ccnc12 [Example 63, Ethyl 7-(3,4-xylyl)pyrazolo[1,5-a]pyrimidine-3-carboxylate]		Active	
N#Cc1cnn2c(-c3cccc(C(F)(F)F)c3)ccnc12 [Example 3, 7-(α,α,α-Trifluoro-m-tolyl)pyrazolo[1,5-a]pyrimidine-3-carbonitrile]	Active	Active	Active
N#Cc1cnn2c(-c3ccccc3C(F)(F)F)ccnc12 [Example 21, 7-(α,α,α-Trifluoro-o-tolyl)pyrazolo[1,5-a]pyrimidine-3-carbonitrile]			Active
FC(F)(F)c1cccc(-c2ccnc3ccnn23)c1 [Example 12, 7-(α,α,α-Trifluoro-m-tolyl)pyrazolo[1,5-a]pyrimidine]	Active	Active	
FC(F)(F)c1cccc(-c2ccnc3c(Br)cnn23)c1 [Example 15, 3-Bromo-7-(α,α,α-trifluoro-m-tolyl)pyrazolo[1,5-a]pyrimidine]	Active	Active	
CC(=O)c1cnn2c(-c3cccc(C(F)(F)F)c3)ccnc12 [Example 54, Methyl 7-(α,α,α-trifluoro-m-tolyl)pyrazolo[1,5-a]pyrimid-3-yl ketone]		Active	
CCOC(=O)c1ncn2c(-c3cccc(C(F)(F)F)c3)ccnc12 [Example 56, Ethyl 4-(α,α,α-trifluoro-m-tolyl)imidazolo[1,5-a]pyrimidine-8-carboxylate]		Active	
N#Cc1ncn2c(-c3cccc(C(F)(F)F)c3)ccnc12 [Example 29, 4-(α,α,α-Trifluoro-m-tolyl)imidazo[1,5-a]pyrimidine-8-carbonitrile]	Active	Active	Active
